# Key:
# Type in all cases: in vivo
# [1] = system: Abutilon theophrasti (ABUTH); experiment: Herbicidal pre-emergence action, section A (Table A1); details: application rate 1280 g/ha, visual grading after ca. 3 weeks vs untreated controls; for pest or weed control at 1280 g/ha: Abutilon theophrasti, pre-emergence, 504 h, read-out: pre-emergence activity against ABUTH in %
# Description: Seeds of mono- and dicotyledonous weed plants were sown in plastic pots (double sowings with one species of mono- and one species of dicotyledonous weed plants per pot), in sandy loam, and covered with soil. The compounds according to the invention, formulated in the form of wettable powders (WP) or as emulsifiable concentrates (EC), were applied to the surface of the covering soil as aqueous suspension or emulsion, with the addition of 0.5% of an additive, at an application rate of 600 l of water per hectare (converted). Following treatment, the pots were placed in a greenhouse and kept under optimum growth conditions for the test plants. The visual grading of the damage to the test plants was carried out after ca. 3 weeks in comparison to untreated controls (herbicidal effect in percent (%): 100% effect=plants have died off, 0% effect=as control plants).
# [2] = system: Alopecurus myosuroides (ALOMY); experiment: Herbicidal pre-emergence action, section A (Table A2); details: visual grading after ca. 3 weeks vs untreated controls; for pest or weed control at 1280 g/ha: Alopecurus myosuroides, pre-emergence, 504 h, read-out: pre-emergence activity against ALOMY in %
# How it was run: (§1)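 Test plants, grown from seed sown in sandy loam with two species per pot, were treated pre-emergence by spraying the covering soil with WP or EC formulations at 600 l/ha water plus 0.5% additive. Visual grading of percent damage followed at ca. 3 weeks.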
# [3] = system: Matricaria inodora (MATIN); experiment: Herbicidal pre-emergence action, section A (Table A6); details: visual grading after ca. 3 weeks vs untreated controls
# How it was run: as §1
# Poa annua (POAAN) = experiment: Herbicidal pre-emergence action, section A (Table A7); details: visual grading after ca. 3 weeks vs untreated controls
# How it was run: as §1
# Setaria viridis (SETVI) [4] = experiment: Herbicidal pre-emergence action, section A (Table A8)
# How it was run: as §1
# [5] = system: Digitaria sanguinalis (DIGSA); experiment: Herbicidal pre-emergence action, section A (Table A12); details: for pest or weed control at 1280 g/ha: Digitaria sanguinalis, 504 h, read-out: pre-emergence activity against DIGSA in %
# How it was run: as §1
# Setaria viridis (SETVI) [6] = experiment: Herbicidal post-emergence action, section B (Table B8); details: application rate 1280 g/ha, visual rating about 3 weeks after treatment vs untreated controls; for pest or weed control at 1280 g/ha: Setaria viridis, post-emergence, 504 h, read-out: post-emergence activity against SETVI in %
# How it was run: (§2)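 Scores are visual % activity relative to untreated plants (0% = like control, 100% = dead), taken about 3 weeks after spraying. Compounds, as WP or EC in water with 0.5% additive at 600 L/ha, went onto one-leaf-stage weeds grown from seed in sandy loam under greenhouse conditions.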
# Stellaria media (STEME) = experiment: Herbicidal post-emergence action, section B (Table B9); details: visual rating about 3 weeks after treatment vs untreated controls
# How it was run: as §2
# [7] = system: Echinochloa crus-galli (ECHCG); experiment: Herbicidal pre-emergence action, section C (Table C3); details: visual grading after ca. 3 weeks vs untreated controls
# How it was run: (§3)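 Greenhouse pre-emergence test on sandy loam: spray of formulated compound onto covering soil at 600 l water/ha, then percent damage judged by eye after ca. 3 weeks relative to untreated pots.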
# [8] = system: Digitaria sanguinalis (DIGSA); experiment: Herbicidal pre-emergence action, section C (Table C12); details: visual grading after ca. 3 weeks
# How it was run: as §3
# [9] = system: Amaranthus retroflexus (AMARE); experiment: Herbicidal post-emergence action, section E (Table E3); details: Amaranthus retroflexus, post-emergence, 504 h; application rate 320 g/ha; assessed visually after ca. 3 weeks; read-out: post-emergence activity against AMARE in %
# Description: (§4) Seeds of mono- and dicotyledonous weed plants and crop plants were sown, in plastic or organic planting pots, in sandy loam, covered with soil and grown in a greenhouse under controlled growth conditions. 2 to 3 weeks after sowing, the test plants were sprayed in the single-leaf stage. The compounds according to the invention, formulated in form of wettable powders (WP) or as emulsifiable concentrates (EC), were sprayed onto the green plant parts as aqueous suspension or emulsion, with the addition of 0.5% of an additive, at an application rate of 600 l of water/ha (converted). The test plants were placed in the greenhouse for ca. 3 weeks under optimum growth conditions, and then the effect of the preparations was assessed visually in comparison with untreated controls (herbicidal effect in percent (%): 100% effect=plants have died off, 0% effect=as control plants).
# [10] = system: Polygonum convolvulus (POLCO); experiment: Herbicidal post-emergence action, section E (Table E7); details: application rate 320 g/ha, visual assessment ca. 3 weeks after spraying
# Description: as §4
# [11] = Setaria viridis, 504 h, application rate 320 g/ha, read-out: pre-emergence activity against SETVI in %
# [12] = Stellaria media, post-emergence, 504 h, application rate 1280 g/ha, read-out: post-emergence activity against STEME in %
# [13] = Echinochloa crus-galli, pre-emergence, 504 h, application rate 80 g/ha, read-out: pre-emergence activity against ECHCG in %
# [14] = Digitaria sanguinalis, pre-emergence, 504 h, application rate 320 g/ha, read-out: pre-emergence activity against DIGSA in %
# [15] = Tripleurospermum inodorum, pre-emergence, 504 h, application rate 1280 g/ha, read-out: pre-emergence activity against MATIN in %
# [16] = Poa annua, pre-emergence, 504 h, application rate 1280 g/ha, read-out: pre-emergence activity against POAAN in %
Structure (SMILES),pest or weed control at 1280 g/ha ([5]; application rate 1280 g/ha),"pest or weed control at 320 g/ha [8, 14]",pre-emergence activity against ABUTH in % [1],pre-emergence activity against MATIN in % ([3]; application rate 320 g/ha),pre-emergence activity against POAAN in % (Poa annua (POAAN); application rate 320 g/ha),pre-emergence activity against SETVI in % (Setaria viridis (SETVI) [4]; application rate 320 g/ha),pre-emergence activity against DIGSA in % ([5]; application rate 320 g/ha),post-emergence activity against SETVI in % (Setaria viridis (SETVI) [6]),post-emergence activity against POLCO in % [10],post-emergence activity against STEME in % (Stellaria media (STEME); application rate 1280 g/ha),pre-emergence activity against ECHCG in % ([7]; application rate 320 g/ha),pre-emergence activity against DIGSA in % ([8]; application rate 320 g/ha),pre-emergence activity against ALOMY in % ([2]; application rate 1280 g/ha),also measured
CCS(=O)(=O)N1C[S+]([O-])c2cc(C)c(-c3ccccc3C)nc21 (stereo not drawn) [Example I-074],100%,100%,–,–,–,–,–,–,–,–,–,–,–,"pest or weed control at 1280 g/ha [1]: 90%; pest or weed control at 1280 g/ha ([2]; application rate 1280 g/ha): 90%; pest or weed control at 320 g/ha ([3]; Tripleurospermum inodorum, pre-emergence, 504 h, application rate 320 g/ha, read-out: pre-emergence activity against MATIN in %): 90%; pest or weed control at 320 g/ha (Poa annua (POAAN); Poa annua, pre-emergence, 504 h, application rate 320 g/ha, read-out: pre-emergence activity against POAAN in %): 100%; pest or weed control at 320 g/ha (Setaria viridis (SETVI) [4]; [11]): 100%; pest or weed control at 1280 g/ha (Setaria viridis (SETVI) [6]): 90%; pest or weed control at 1280 g/ha (Stellaria media (STEME); [12]): 90%; pest or weed control at 80 g/ha [7, 13]: 100%"
"Clc1ccccc1-c1nc2c(cc1Br)SCN2 [Example I-041, 6-bromo-5-(2-chlorophenyl)-2,3-dihydro[1,3]thiazolo[4,5-b]pyridine]",100%,100%,–,–,–,–,–,–,–,–,–,–,–,"pest or weed control at 1280 g/ha [1]: 90%; pest or weed control at 1280 g/ha ([2]; application rate 1280 g/ha): 90%; pest or weed control at 1280 g/ha [3, 15]: 90%; pest or weed control at 1280 g/ha (Poa annua (POAAN); [16]): 100%; pest or weed control at 320 g/ha (Setaria viridis (SETVI) [4]; [11]): 100%; pest or weed control at 1280 g/ha (Setaria viridis (SETVI) [6]): 90%; pest or weed control at 320 g/ha (Stellaria media (STEME); Stellaria media, post-emergence, 504 h, application rate 320 g/ha, read-out: post-emergence activity against STEME in %): 90%; pest or weed control at 320 g/ha ([7]; Echinochloa crus-galli, pre-emergence, 504 h, application rate 320 g/ha, read-out: pre-emergence activity against ECHCG in %): 100%"
CC(C)C(=O)N1C[S+]([O-])c2cc(Br)c(-c3ccccc3)nc21 (stereo not drawn) [Example I-067],–,100%,–,–,–,–,–,–,–,–,–,–,–,"pest or weed control at 80 g/ha [7, 13]: 90%; pest or weed control at 320 g/ha [9]: 80%"
Cc1cc2c(nc1-c1ccccc1F)N(C(=O)C13CCCC1C(Cl)=NO3)CS2 (stereo not drawn) [Example I-104],–,–,90%,100%,100%,100%,100%,90%,90%,–,–,–,–,pre-emergence activity against ALOMY in % ([2]; application rate 320 g/ha): 90%; post-emergence activity against STEME in % (Stellaria media (STEME); application rate 320 g/ha): 90%; pre-emergence activity against ECHCG in % ([7]; application rate 80 g/ha): 100%; pre-emergence activity against DIGSA in % ([8]; application rate 80 g/ha): 100%
BN1CSc2cc(Br)c(-c3ccccc3C)nc21 [Example I-011],–,–,–,–,100%,–,–,90%,80%,90%,100%,100%,–,pre-emergence activity against SETVI in % (Setaria viridis (SETVI) [4]; application rate 1280 g/ha): 90%
CCc1ccccc1-c1nc2c(cc1C)[S+]([O-])CN2 (stereo not drawn) [Example I-047],100%,–,–,–,–,–,–,–,–,–,–,–,–,"pest or weed control at 1280 g/ha [3, 15]: 90%; pest or weed control at 1280 g/ha (Poa annua (POAAN); [16]): 100%; pest or weed control at 1280 g/ha (Setaria viridis (SETVI) [4]; Setaria viridis, 504 h, application rate 1280 g/ha, read-out: pre-emergence activity against SETVI in %): 100%; pest or weed control at 1280 g/ha (Stellaria media (STEME); [12]): 90%; pest or weed control at 80 g/ha ([8]; Digitaria sanguinalis, pre-emergence, 504 h, application rate 80 g/ha, read-out: pre-emergence activity against DIGSA in %): 90%"
Cc1cc2c(nc1-c1ccccc1F)N(S(=O)(=O)Cc1ccc(F)cc1)CS2 [Example I-122],–,–,90%,90%,100%,100%,100%,90%,90%,90%,100%,100%,100%,–
Cc1cc2c(nc1-c1ccccc1)N(C(=O)C1(C)CC(Cl)=NO1)CS2 (stereo not drawn) [Example I-088],–,–,–,–,100%,100%,100%,90%,90%,–,100%,100%,100%,pre-emergence activity against MATIN in % ([3]; application rate 1280 g/ha): 90%; post-emergence activity against STEME in % (Stellaria media (STEME); application rate 320 g/ha): 90%
Cc1cc2c(nc1-c1cccc(C)c1F)NCS2 [Example I-113],–,–,–,–,–,100%,100%,–,–,90%,100%,100%,–,pre-emergence activity against POAAN in % (Poa annua (POAAN); application rate 1280 g/ha): 100%
COC(=O)CCC(=O)N1CSc2cc(Cl)c(-c3ccccc3F)nc21 [Example I-003],–,–,90%,90%,–,100%,–,90%,–,90%,80%,90%,100%,pre-emergence activity against POAAN in % (Poa annua (POAAN); application rate 1280 g/ha): 100%; pre-emergence activity against DIGSA in % ([5]; application rate 1280 g/ha): 100%

# Reference: patent US20240381872A1, “SUBSTITUTED 2,3-DIHYDRO[1,3]THIAZOLO[4,5-B]PYRIDINES, SALTS THEREOF AND THEIR USE AS HERBICIDALLY ACTIVE SUBSTANCES” (BAYER AKTIENGESELLSCHAFT, priority 2021, published 2024)
